Blank lines part the entries; values can stand above or below the molecule they belong to.
What was measured:
[1] = after i.v. injection; cited from earlier work
[2] = injected i.v. into mice; cited from earlier work
in vivo [3] = conditions: BALB/c nude, mouse, eye (fluorescence signal intensity in the eye region), iv, 20 μg/200 μl
Description: (§1) We first evaluated the technical feasibility of this new approach by using indocyanine green (ICG) a fluorescent dye. […] Female BALB/c nude mice received inhalation anaesthesia, were placed in the imaging chamber (FIG. 3) and injected i.v. with a dose of 20 μg/200 μl. The fluorescence signal intensity measurements in the eye was started 10 sec before i.v. injection of ICG and images were recorded every second with an acquisition time of 500 ms over a period of 8 minutes. ICG was excited with light at a wavelength range from 671 to 705 nm and the emission was detected at 820 nm. […] In a second experiment, a BALB/c nude mouse with a s.c. growing tumor (Calu3) was injected with ICG i.v. and signal intensity in eye, liver, kidney, brain and the tumor region was monitored.
(§2) The fluorescence signal intensity in Calu3 xenograft was measured as described before. ROI were identified for the eye, liver, kidney, brain and s.c. growing tumor using the anatomical pictures of the subjects. The fluorescence intensity from these regions were then calculated and plotted as a function of time.
(§3) In a second experiment, a BALB/c nude mouse with a s.c. growing tumor (Calu3) was injected with ICG i.v. and signal intensity in eye, liver, kidney, brain and the tumor region was monitored.

in vivo [4] = conditions: female, BALB/c nude, mouse, eye region (fluorescence signal), iv, 20 μg/200 μl
Description: Female BALB/c nude mice received inhalation anaesthesia, were placed in the imaging chamber (FIG. 3) and injected i.v. with a dose of 20 μg/200 μl. The fluorescence signal intensity measurements in the eye was started 10 sec before i.v. injection of ICG and images were recorded every second with an acquisition time of 500 ms over a period of 8 minutes. ICG was excited with light at a wavelength range from 671 to 705 nm and the emission was detected at 820 nm.
Female BALB/c nude received inhalation anesthesia, were placed into the imaging chamber and injected i.v. with ICG (20 μg/200 μl). The fluorescence signal intensity was measured starting 10 sec before injection of ICG. Images in the region of interest were recorded every second with an acquisition time of 500 ms over a period of 8 min. ICG was excited with light at a wavelength range from 671 to 705 nm and the emission was detected at 820 nm. The fluorescence intensity from these regions were then calculated and plotted as a function of time.
Female BALB/c nude mice received inhalation anesthesia, were placed in the imaging chamber (FIG. 3) and injected i.v. with a dose of 20 μg/200 μl.

[5] = Fluorescence signal intensity of ICG in eye, liver, kidney, brain and tumor region of a mouse with s.c. Calu3 tumor; conditions: second experiment, ICG i.v., BALB/c nude mouse with s.c. Calu3 tumor
Description: as §1, §2, §3

[6] = system: BMP-2 induced upregulation of Hepcidin mRNA in HepG2 cells; experiment: Block of BMP-2 induced upregulation of Hepcidin mRNA in HepG2 cells; format: cell-based; conditions: in vitro

Molecule: NCCC(O)(P(=O)(O)O)P(=O)(O)O [Pamidronate]
serum half life [1]: 20 to 30 min

Tmax (in vivo [3]): 1.2 min
half-life (in vivo [3]): 5.4 min
Tmax (in vivo [4]): 2 min
half-life (in vivo [4]): 6.6 min
accumulation in the liver, time of reaching a plateau [5]: 3.8 min
Molecule: CC1(C)C(/C=C/C=C/C=C/C=C2\N(CCCCS(=O)(=O)O)c3ccc4ccccc4c3C2(C)C)=[N+](CCCCS(=O)(=O)[O-])c2ccc3ccccc3c21 [ICG, Indocyanine green]
organ of accumulation [2]: accumulates in the liver
time in which cleared from the circulation [2]: 2 to 4 min

B1: non-labeled Hemojuvelin: non-labeled Hemojuvelin (protein, UniProt Q6ZVN8 36-400, looked up)
Hemojuvelin: QCKILRCNAEYVSSTLSLRGGGSSGALRGGGGGGRGGGVGSGGLCRALRSYALCTRRTARTCRGDLAFHSAVHGIEDLMIQHNCSRQGPTAPPPPRGPALPGAGSGLPAPDPCDYEGRFSRLHGRPPGFLHCASFGDPHVRSFHHHFHTCRVQGAWPLLDNDFLFVQATSSPMALGANATATRKLTIIFKNMQECIDQKVYQAEVDNLPVAFEDGSINGGDRPGGSSLSIQTANPGNHVEIQAAYIGTTIIIRQTAGQLSFSIKVAEDVAMAFSAEQDLQLCVGGCPPSQRLSRSERNRRGAITIDTARRLCKEGLPVEDAYFHSCVFDVLISGDPNFTVAAQAALEDARAFLPDLEKLHLFPSD
ability to block BMP-2 induced upregulation of Hepcidin mRNA, non-labeled versus Cy5-labeled [6]: did not differ

B2: Cy5-labeled Hemojuvelin: Hemojuvelin labeled with Cy5 (conjugate, UniProt Q6ZVN8 36-400, looked up)
Hemojuvelin: QCKILRCNAEYVSSTLSLRGGGSSGALRGGGGGGRGGGVGSGGLCRALRSYALCTRRTARTCRGDLAFHSAVHGIEDLMIQHNCSRQGPTAPPPPRGPALPGAGSGLPAPDPCDYEGRFSRLHGRPPGFLHCASFGDPHVRSFHHHFHTCRVQGAWPLLDNDFLFVQATSSPMALGANATATRKLTIIFKNMQECIDQKVYQAEVDNLPVAFEDGSINGGDRPGGSSLSIQTANPGNHVEIQAAYIGTTIIIRQTAGQLSFSIKVAEDVAMAFSAEQDLQLCVGGCPPSQRLSRSERNRRGAITIDTARRLCKEGLPVEDAYFHSCVFDVLISGDPNFTVAAQAALEDARAFLPDLEKLHLFPSD
modifications: Cy5 label
ability to block BMP-2 induced upregulation of Hepcidin mRNA, non-labeled versus Cy5-labeled [6]: did not differ
